Assay results taken from US9878986B2, “Compounds for selective histone deacetylase inhibitors, and pharmaceutical composition comprising the same” (CHONG KUN DANG PHARMACEUTICAL CORP., priority 2013, dated 2018).

Assays:
HDAC 6 = target: T1, HDAC 6 (Homo sapiens, UniProt Q9UBN7); experiment: Test of HDAC activities, HDAC6 (fluorimetric); format: biochemical; design: purchased Calbiochem 382180; conditions: samples at 0.1, 1, 10, 100, 1000 nM; 37° C. 60 minutes; fluorescence Ex 390, Em 460; read-out: HDAC inhibitory activities, HDAC6
T1 sequence (Q9UBN7 1-1215): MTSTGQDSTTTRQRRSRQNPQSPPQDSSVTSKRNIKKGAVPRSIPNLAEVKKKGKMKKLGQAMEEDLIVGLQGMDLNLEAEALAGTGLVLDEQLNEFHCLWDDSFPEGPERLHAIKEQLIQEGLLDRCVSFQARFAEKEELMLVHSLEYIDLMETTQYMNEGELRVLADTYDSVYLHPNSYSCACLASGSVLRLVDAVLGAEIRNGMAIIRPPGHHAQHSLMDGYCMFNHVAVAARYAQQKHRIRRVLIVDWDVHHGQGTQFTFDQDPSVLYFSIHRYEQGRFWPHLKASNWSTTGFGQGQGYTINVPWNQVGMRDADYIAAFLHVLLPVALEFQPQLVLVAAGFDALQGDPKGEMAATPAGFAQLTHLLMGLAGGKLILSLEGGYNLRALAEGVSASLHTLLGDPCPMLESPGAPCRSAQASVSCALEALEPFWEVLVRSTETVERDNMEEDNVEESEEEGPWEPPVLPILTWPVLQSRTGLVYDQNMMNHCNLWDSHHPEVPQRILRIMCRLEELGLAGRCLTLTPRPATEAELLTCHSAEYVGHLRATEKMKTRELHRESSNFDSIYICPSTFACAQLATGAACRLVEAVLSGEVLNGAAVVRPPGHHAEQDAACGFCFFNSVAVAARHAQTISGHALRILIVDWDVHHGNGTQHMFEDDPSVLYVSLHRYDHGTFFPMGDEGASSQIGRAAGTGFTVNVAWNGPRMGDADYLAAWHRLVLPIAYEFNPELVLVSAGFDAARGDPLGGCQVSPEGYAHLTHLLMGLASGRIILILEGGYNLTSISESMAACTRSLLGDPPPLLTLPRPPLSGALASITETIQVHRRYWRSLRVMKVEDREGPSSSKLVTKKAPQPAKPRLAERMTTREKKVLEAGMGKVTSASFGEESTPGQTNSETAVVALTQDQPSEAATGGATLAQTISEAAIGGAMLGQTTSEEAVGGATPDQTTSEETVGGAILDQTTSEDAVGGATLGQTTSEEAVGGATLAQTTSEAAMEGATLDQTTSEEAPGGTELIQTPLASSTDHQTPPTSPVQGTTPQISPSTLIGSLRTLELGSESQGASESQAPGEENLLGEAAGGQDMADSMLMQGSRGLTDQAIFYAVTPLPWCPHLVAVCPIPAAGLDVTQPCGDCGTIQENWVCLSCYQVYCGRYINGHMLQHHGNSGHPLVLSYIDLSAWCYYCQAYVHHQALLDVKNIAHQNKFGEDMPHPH
Procedure, shortened: (§1)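 HDAC1 tested at 100, 1000 and 10000 nM; recombinant human HDAC6 at 0.1, 1, 10, 100 and 1000 nM. Reaction 60 min at 37° C, then developer for 30 min at 37° C; fluorescence read at Ex 390/Em 460.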

HDAC1 = HDAC1 (Homo sapiens, UniProt Q13547); experiment: Test of HDAC activities, HDAC1 Fluorimetric Drug Discovery Assay Kit; format: biochemical; design: purchased Enzolifesciences BML-AK511; conditions: samples at 100, 1000, 10000 nM; 37° C. 60 minutes; fluorescence Ex 390, Em 460; read-out: HDAC inhibitory activities, HDAC1
Chain of HDAC1 (Q13547 whole entry): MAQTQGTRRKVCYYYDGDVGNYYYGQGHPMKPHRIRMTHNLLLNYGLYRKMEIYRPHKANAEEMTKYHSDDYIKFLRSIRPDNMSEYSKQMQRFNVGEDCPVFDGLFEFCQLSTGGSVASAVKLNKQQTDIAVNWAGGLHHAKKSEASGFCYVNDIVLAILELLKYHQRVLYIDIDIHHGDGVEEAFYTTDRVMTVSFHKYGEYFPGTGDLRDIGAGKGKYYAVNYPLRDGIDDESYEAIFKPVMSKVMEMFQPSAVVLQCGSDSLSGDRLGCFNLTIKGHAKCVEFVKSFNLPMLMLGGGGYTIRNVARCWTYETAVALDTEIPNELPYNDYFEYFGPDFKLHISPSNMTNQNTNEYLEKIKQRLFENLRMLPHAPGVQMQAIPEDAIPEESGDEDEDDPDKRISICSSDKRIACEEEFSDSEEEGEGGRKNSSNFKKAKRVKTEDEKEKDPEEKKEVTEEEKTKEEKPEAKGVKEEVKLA
Procedure, shortened: as §1

Molecule `O=C(NO)c1ccc(CN(C(=O)N2CCOCC2)c2ccc(C(F)(F)F)cc2)c(F)c1` [Compound 577, N-(2-fluoro-4-(hydroxycarbamoyl)benzyl)-N-(4-(trifluoromethyl)phenyl)morpholine-4-carboxamide] has an IC50 (HDAC 6) of 1.2 nM and an IC50 (HDAC1) of 1000 nM.
In the case of `O=C(NO)c1ccc(CN(C(=O)N2CC(F)(F)C2)c2ccc(C(F)(F)F)cc2)c(F)c1` [Compound 578, 3,3-difluoro-N-(2-fluoro-4-(hydroxycarbamoyl)benzyl)-N-(4-(trifluoromethyl)phenyl) azetidine-1-carboxamide], the IC50 (HDAC 6) is reported as 9.3 nM and the IC50 (HDAC1) is reported as 1250 nM.
For `O=C(NO)c1ccc(CN(C(=O)N2CCCOCC2)c2ccc(C(F)(F)F)cc2)cc1` [Compound 580, N-(4-(hydroxycarbamoyl)benzyl)-N-(4-(trifluoromethyl)phenyl)-1,4-oxazepane-4-carboxamide], the IC50 (HDAC 6) was 21 nM and the IC50 (HDAC1) was 667 nM.
In the case of `O=C(NO)c1ccc(CN(C(=O)N2CCN(CC3(O)CCOCC3)CC2)c2cccc(C(F)(F)F)c2)cc1` [Compound 651, 4-((4-hydroxy-tetrahydro-2H-pyran-4-yl)methyl)-N-(4-(hydroxycarbamoyl)benzyl)-N-(3-(trifluoromethyl)phenyl)piperazine-1-carboxamide], the IC50 (HDAC 6) is reported as 4.6 nM and the IC50 (HDAC1) is reported as 765 nM.
Molecule `O=C(NO)c1ccc(CN(C(=O)N2CCN(Cc3ccccc3)CC2)c2cccc(C(F)(F)F)c2)cc1` [Compound 683, 4-benzyl-N-(4-(hydroxycarbamoyl)benzyl)-N-(3-(trifluoromethyl)phenyl)piperazine-1-carboxamide] has an IC50 (HDAC 6) of 1.4 nM and an IC50 (HDAC1) of 545 nM.
Work on `COc1cccc(N2CCN(C(=O)N(Cc3ccc(C(=O)NO)cc3)c3cccc(C(F)(F)F)c3)CC2)c1` [Compound 684, N-(4-(hydroxycarbamoyl)benzyl)-4-(3-methoxyphenyl)-N-(3-(trifluoromethyl)phenyl)piperazine-1-carboxamide] yielded an IC50 (HDAC 6) of 19 nM and an IC50 (HDAC1) of 4980 nM.
Work on `O=C(NO)c1ccc(CN(C(=O)N2CCN(CC3(F)CCOCC3)CC2)c2cccc(C(F)(F)F)c2)cc1` [Compound 716, 4-((4-fluorotetrahydro-2H-pyran-4-yl)methyl)-N-(4-(hydroxycarbamoyl)benzyl)-N-(3-(trifluoromethyl)phenyl)piperazine-1-carboxamide] yielded an IC50 (HDAC 6) of 6.4 nM and an IC50 (HDAC1) of 727 nM.
Work on `O=C(NO)c1ccc(CN(C(=O)N2CCN(c3ccccc3)CC2)c2cccc(C(F)(F)F)c2)cc1` [Compound 717, N-(4-(hydroxycarbamoyl)benzyl)-4-phenyl-N-(3-(trifluoromethyl)phenyl)piperazine-1-carboxamide] yielded an IC50 (HDAC 6) of 24 nM and an IC50 (HDAC1) of 2370 nM.
With `O=C(NO)c1ccc(CN(C(=O)N2CCN(C(c3ccccc3)c3ccccc3)CC2)c2cccc(C(F)(F)F)c2)cc1` [Compound 718, 4-benzhydryl-N-(4-(hydroxycarbamoyl)benzyl)-N-(3-(trifluoromethyl)phenyl)piperazine-1-carboxamide] the IC50 (HDAC 6) was 405 nM and the IC50 (HDAC1) was 8540 nM.
Work on `CCN1CCN(C(=O)N(Cc2ccc(C(=O)NO)cc2)c2cccc(CF)c2)CC1` [Compound 765, 4-ethyl-N-(3-(fluoromethyl)phenyl)-N-(4-(hydroxycarbamoyl)benzyl)piperazine-1-carboxamide] yielded an IC50 (HDAC 6) of 1.8 nM and an IC50 (HDAC1) of 433 nM.
With `CC(C)(F)CN1CCN(C(=O)N(Cc2ccc(C(=O)NO)cc2)c2cccc(CF)c2)CC1` [Compound 766, 4-(2-fluoro-2-methylpropyl)-N-(3-(fluoromethyl)phenyl)-N-(4-(hydroxycarbamoyl)benzyl)piperazine-1-carboxamide] the IC50 (HDAC 6) was 3 nM and the IC50 (HDAC1) was 838 nM.
`O=C(NO)c1ccc(CN(C(=O)N2CCOCC2)c2ccccc2OC(F)(F)F)cc1` [Compound 771, N-(4-(hydroxycarbamoyl)benzyl)-N-(2-(trifluoromethoxy)phenyl)morpholine-4-carboxamide] was tested, and the IC50 (HDAC 6) was 64.5 nM and the IC50 (HDAC1) was over 10000 nM.
`O=C(NO)c1ccc(CN(C(=O)N2CCOCC2)c2ccc(OC(F)(F)F)cc2)cc1` [Compound 772, N-(4-(hydroxycarbamoyl)benzyl)-N-(4-(trifluoromethoxy)phenyl)morpholine-4-carboxamide] was tested, and the IC50 (HDAC 6) was 2.5 nM and the IC50 (HDAC1) was 349 nM.
Molecule `O=C(NO)c1ccc(CN(C(=O)N2CCOCC2)c2cccc(OC(F)(F)F)c2)cc1` [Compound 773, N-(4-(hydroxycarbamoyl)benzyl)-N-(3-(trifluoromethoxy)phenyl)morpholine-4-carboxamide] has an IC50 (HDAC 6) of 2.8 nM and an IC50 (HDAC1) of 312 nM.
`COc1ccc(C(F)(F)F)cc1N(Cc1ccc(C(=O)NO)cc1)C(=O)N1CCOCC1` [Compound 774, N-(4-(hydroxycarbamoyl)benzyl)-N-(2-methoxy-5-(trifluoromethyl)phenyl)morpholine-4-carboxamide] showed an IC50 (HDAC 6) of 119 nM and an IC50 (HDAC1) of 12300 nM.
For `O=C(NO)c1ccc(CN(C(=O)N2CCOCC2)c2cc(C(F)(F)F)ccc2Cl)cc1` [Compound 776, N-(2-chloro-5-(trifluoromethyl)phenyl)-N-(4-(hydroxycarbamoyl)benzyl)morpholine-4-carboxamide], the IC50 (HDAC 6) was 31.5 nM and the IC50 (HDAC1) was 1980 nM.
For `O=C(NO)c1ccc(CN(C(=O)N2CCOCC2)c2cccc(C(F)(F)F)n2)cc1` [Compound 778, N-(4-(hydroxycarbamoyl)benzyl)-N-(6-(trifluoromethyl)pyridin-2-yl)morpholine-4-carboxamide], the IC50 (HDAC 6) was 11 nM and the IC50 (HDAC1) was 6430 nM.
`O=C(NO)c1ccc(CN(C(=O)N2CCOCC2)c2cccc(F)c2F)cc1` [Compound 791, N-(2,3-difluorophenyl)-N-(4-(hydroxycarbamoyl)benzyl)morpholine-4-carboxamide] was tested, and the IC50 (HDAC 6) was 1.1 nM and the IC50 (HDAC1) was 585 nM.
Work on `CCN1[C@H](C)CN(C(=O)N(Cc2ccc(C(=O)NO)cc2)c2cccc(C(F)(F)F)c2)C[C@@H]1C` [Compound 797, (3S,5R)-4-ethyl-N-(4-(hydroxycarbamoyl)benzyl)-3,5-dimethyl-N-(3-(trifluoromethyl)phenyl)piperazine-1-carboxamide] yielded an IC50 (HDAC 6) of 2 nM and an IC50 (HDAC1) of 1600 nM.
Molecule `CC1CN(C(=O)N(Cc2ccc(C(=O)NO)cc2)c2cccc(OC(F)(F)F)c2)CC(C)O1` (centres unmarked) [Compound 800, N-(4-(hydroxycarbamoyl)benzyl)-2,6-dimethyl-N-(3-(trifluoromethoxy)phenyl)morpholine-4-carboxamide] has an IC50 (HDAC 6) of 78 nM and an IC50 (HDAC1) of 633 nM.
`CC1CN(C(=O)N(Cc2ccc(C(=O)NO)cc2)c2ccccc2OC(F)(F)F)CC(C)O1` (centres unmarked) [Compound 801, N-(4-(hydroxycarbamoyl)benzyl)-2,6-dimethyl-N-(2-(trifluoromethoxy)phenyl)morpholine-4-carboxamide] was tested, and the IC50 (HDAC 6) was 59.7 nM and the IC50 (HDAC1) was 14900 nM.
`C[C@@H]1CN(C(=O)N(Cc2ccc(C(=O)NO)cc2)c2cccc(C(F)(F)F)c2)C[C@H](C)N1Cc1ccccc1` [Compound 802, (3S,5R)-4-benzyl-N-(4-(hydroxycarbamoyl)benzyl)-3,5-dimethyl-N-(3-(trifluoromethyl)phenyl)piperazine-1-carboxamide] showed an IC50 (HDAC 6) of 9.4 nM and an IC50 (HDAC1) of 1600 nM.
In the case of `C[C@@H]1CN(C(=O)N(Cc2ccc(C(=O)NO)cc2)c2cccc(C(F)(F)F)c2)C[C@H](C)N1CC(F)(F)C(F)(F)F` [Compound 803, (3S,5R)—N-(4-(hydroxycarbamoyl)benzyl)-3,5-dimethyl-4-(2,2,3,3,3-pentafluoropropyl)-N-(3-(trifluoromethyl)phenyl)piperazine-1-carboxamide], the IC50 (HDAC 6) is reported as 213 nM and the IC50 (HDAC1) is reported as 5320 nM.
Work on `CCN1CCN(C(=O)N(Cc2ccc(C(=O)NO)cc2)c2cccc(C(F)(F)F)n2)CC1` [Compound 826, 4-ethyl-N-(4-(hydroxycarbamoyl)benzyl)-N-(6-(trifluoromethyl)pyridin-2-yl)piperazine-1-carboxamide] yielded an IC50 (HDAC 6) of 11.8 nM and an IC50 (HDAC1) of 1850 nM.
`CC1CN(C(=O)N(Cc2ccc(C(=O)NO)cc2)c2cccc(C(F)(F)F)n2)CC(C)O1` (centres unmarked) [Compound 827, N-(4-(hydroxycarbamoyl)benzyl)-2,6-dimethyl-N-(6-(trifluoromethyl)pyridin-2-yl)morpholine-4-carboxamide] showed an IC50 (HDAC 6) of 24.7 nM and an IC50 (HDAC1) of 1740 nM.
